Assay results taken from ChEMBL document CHEMBL1201862, “PubChem BioAssay data set” (2004).
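The compound was tested at five concentrations on cells cultured in 96-well plates, with a 48-hour exposure period. Here, GI50 denotes the concentration required for 50% inhibition of growth.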 Activity calls are given as the source filed them. Cut-off read from the data, not from the text of the source: active = GI50 up to about 1.1 µM and inactive = higher.

Tests used:
Test in all cases: NCI tumour cell line growth inhibition, 48 h
MCF7 = system: MCF7
SK-MEL-28 = system: SK-MEL-28
HOP-92 = system: HOP-92
HL-60 = system: HL-60
BT-549 = system: BT-549
OVCAR-8 = system: OVCAR-8
HOP-62 = system: HOP-62
NCI-H522 = system: NCI-H522
A549 = system: A549
M14 = system: M14
A498 = system: A498
Hs-578T = system: Hs-578T
T47D = system: T47D
NCI-H226 = system: NCI-H226
HCT-15 = system: HCT-15
ACHN = system: ACHN
CAKI-1 = system: CAKI-1
MDA-MB-231 = system: MDA-MB-231
HCT-116 = system: HCT-116
786-0 = system: 786-0

SMILES | GI50 (MCF7) | GI50 (SK-MEL-28) | GI50 (HOP-92) | GI50 (HL-60) | GI50 (BT-549) | GI50 (OVCAR-8) | GI50 (HOP-62) | GI50 (NCI-H522) | GI50 (A549) | GI50 (M14) | GI50 (A498) | GI50 (Hs-578T) | GI50 (T47D) | GI50 (NCI-H226) | GI50 (HCT-15) [µM] | GI50 (ACHN) | GI50 (CAKI-1) | GI50 (MDA-MB-231) | GI50 (HCT-116) | GI50 (786-0)
CC(C)NC(=O)OCc1c(COC(=O)NC(C)C)c(-c2cc[n+](COC(=O)C3CC3)cc2)n2c1CCC2 | > 100 µM (inactive) | > 100 µM (inactive) | > 100 µM (inactive) | 86.7 µM (inactive) | > 100 µM (inactive) | > 100 µM (inactive) | > 100 µM (inactive) | > 100 µM (inactive) | > 100 µM (inactive) | > 100 µM (inactive) | 79.3 µM (inactive) | > 100 µM (inactive) | > 100 µM (inactive) | > 100 µM (inactive) | > 100 | 32.4 µM (inactive) | > 100 µM (inactive) | > 100 µM (inactive) | > 100 µM (inactive) | > 100 µM (inactive)
Brc1cccc(Nc2nc(-c3cccs3)nc3ccc(Br)cc23)c1 | 14.2 µM (inactive) | 25.2 µM (inactive) | 19.6 µM (inactive) | 1.28 µM (inactive) | 80.9 µM (inactive) | 47 µM (inactive) | 32.1 µM (inactive) | 19 µM (inactive) | 29.5 µM (inactive) | 25.5 µM (inactive) | 31.7 µM (inactive) | 38.8 µM (inactive) | 9.89 µM (inactive) | 31.4 µM (inactive) | 26.5 | 27.7 µM (inactive) | 23.1 µM (inactive) | 20.7 µM (inactive) | 30.5 µM (inactive) | 28.2 µM (inactive)
O=C(CSc1ncnc2[nH]cnc12)c1ccccc1 | > 100 µM (inactive) | > 100 µM (inactive) | 50.2 µM (inactive) | > 100 µM (inactive) | > 100 µM (inactive) | > 100 µM (inactive) | > 100 µM (inactive) | 47.4 µM (inactive) | > 100 µM (inactive) | > 88.3 µM (inactive) | > 100 µM (inactive) | > 100 µM (inactive) | > 100 µM (inactive) | > 100 µM (inactive) | > 100 | > 100 µM (inactive) | 75.2 µM (inactive) | > 100 µM (inactive) | > 100 µM (inactive) | > 100 µM (inactive)
Cc1ccc(N2C(N)=C(C#N)C(C#N)(C#N)C2c2ccccc2)cc1 (stereo not given) | 4.95 µM (inactive) | 10.1 µM (inactive) | 7.78 µM (inactive) | 2.75 µM (inactive) | 10.2 µM (inactive) | 20 µM (inactive) | 19.5 µM (inactive) | 5.42 µM (inactive) | 16.6 µM (inactive) | 12.3 µM (inactive) | 17 µM (inactive) | 21 µM (inactive) | 5.74 µM (inactive) | 19.5 µM (inactive) | 6.71 | 14.2 µM (inactive) | 8.97 µM (inactive) | 11.5 µM (inactive) | 3.79 µM (inactive) | 14.2 µM (inactive)
Cc1cccc(-c2cc(O)c3cc(C)cnc3n2)c1 | 0.305 µM (active) | 1.63 µM (inactive) | 11.7 µM (inactive) | 0.0338 µM (active) | 0.292 µM (active) | 0.39 µM (active) | 0.373 µM (active) | 0.0955 µM (active) | 0.279 µM (active) | 0.0998 µM (active) | 0.372 µM (active) | 0.244 µM (active) | 6.5 µM (inactive) | 0.238 µM (active) | 0.183 | 0.532 µM (active) | 0.199 µM (active) | 0.518 µM (active) | 0.118 µM (active) | 0.361 µM (active)
O=C(Nc1nn(C(=O)c2cccnc2)c(=O)s1)c1ccc(Cl)cc1 | 77.3 µM (inactive) | > 100 µM (inactive) | 61.5 µM (inactive) | 60.3 µM (inactive) | > 100 µM (inactive) | > 100 µM (inactive) | > 100 µM (inactive) | 21.7 µM (inactive) | 99.8 µM (inactive) | > 100 µM (inactive) | > 100 µM (inactive) | 29.2 µM (inactive) | 27 µM (inactive) | 22.5 µM (inactive) | 80.4 | > 100 µM (inactive) | 40.6 µM (inactive) | > 100 µM (inactive) | 84.5 µM (inactive) | > 100 µM (inactive)
